Test results published in publication PMC4858680, “A platinum-based hybrid drug design approach to circumvent acquired resistance to molecular targeted tyrosine kinase inhibitors” (Scientific Reports, 2016).

What was measured:
Settings in all cases: 10 μM
EPHB4 = target: T1, EPHB4 (Homo sapiens, UniProt P54760)
T1 sequence (P54760 16-987): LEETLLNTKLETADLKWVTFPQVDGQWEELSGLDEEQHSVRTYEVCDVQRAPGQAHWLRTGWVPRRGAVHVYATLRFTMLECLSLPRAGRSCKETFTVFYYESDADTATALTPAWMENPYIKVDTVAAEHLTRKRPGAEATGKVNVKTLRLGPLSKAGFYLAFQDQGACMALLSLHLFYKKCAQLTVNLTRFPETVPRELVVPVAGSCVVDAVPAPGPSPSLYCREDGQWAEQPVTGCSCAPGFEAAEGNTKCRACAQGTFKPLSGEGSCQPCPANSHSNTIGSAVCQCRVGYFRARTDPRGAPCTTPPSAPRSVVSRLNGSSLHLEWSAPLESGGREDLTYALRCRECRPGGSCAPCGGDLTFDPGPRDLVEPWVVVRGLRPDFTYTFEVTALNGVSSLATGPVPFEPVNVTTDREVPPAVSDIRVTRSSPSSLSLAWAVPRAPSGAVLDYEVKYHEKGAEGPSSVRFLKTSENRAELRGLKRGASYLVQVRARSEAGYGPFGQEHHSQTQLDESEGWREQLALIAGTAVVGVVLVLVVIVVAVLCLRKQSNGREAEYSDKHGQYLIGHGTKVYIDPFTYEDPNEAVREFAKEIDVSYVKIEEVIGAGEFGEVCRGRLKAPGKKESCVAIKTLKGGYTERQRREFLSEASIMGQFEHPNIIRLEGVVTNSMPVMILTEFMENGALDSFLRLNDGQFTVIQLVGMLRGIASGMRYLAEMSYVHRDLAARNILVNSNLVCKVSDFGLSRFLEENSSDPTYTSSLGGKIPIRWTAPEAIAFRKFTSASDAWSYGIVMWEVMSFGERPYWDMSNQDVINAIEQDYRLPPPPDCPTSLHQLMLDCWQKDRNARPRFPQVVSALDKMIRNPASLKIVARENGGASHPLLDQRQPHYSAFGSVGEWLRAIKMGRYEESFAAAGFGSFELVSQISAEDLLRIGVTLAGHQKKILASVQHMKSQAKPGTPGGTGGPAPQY

FLT3(ITD) = test system: FLT3(ITD)
EPHB2 = target: T2, EPHB2 (Homo sapiens, UniProt P29323)
T2 sequence (P29323 19-1055): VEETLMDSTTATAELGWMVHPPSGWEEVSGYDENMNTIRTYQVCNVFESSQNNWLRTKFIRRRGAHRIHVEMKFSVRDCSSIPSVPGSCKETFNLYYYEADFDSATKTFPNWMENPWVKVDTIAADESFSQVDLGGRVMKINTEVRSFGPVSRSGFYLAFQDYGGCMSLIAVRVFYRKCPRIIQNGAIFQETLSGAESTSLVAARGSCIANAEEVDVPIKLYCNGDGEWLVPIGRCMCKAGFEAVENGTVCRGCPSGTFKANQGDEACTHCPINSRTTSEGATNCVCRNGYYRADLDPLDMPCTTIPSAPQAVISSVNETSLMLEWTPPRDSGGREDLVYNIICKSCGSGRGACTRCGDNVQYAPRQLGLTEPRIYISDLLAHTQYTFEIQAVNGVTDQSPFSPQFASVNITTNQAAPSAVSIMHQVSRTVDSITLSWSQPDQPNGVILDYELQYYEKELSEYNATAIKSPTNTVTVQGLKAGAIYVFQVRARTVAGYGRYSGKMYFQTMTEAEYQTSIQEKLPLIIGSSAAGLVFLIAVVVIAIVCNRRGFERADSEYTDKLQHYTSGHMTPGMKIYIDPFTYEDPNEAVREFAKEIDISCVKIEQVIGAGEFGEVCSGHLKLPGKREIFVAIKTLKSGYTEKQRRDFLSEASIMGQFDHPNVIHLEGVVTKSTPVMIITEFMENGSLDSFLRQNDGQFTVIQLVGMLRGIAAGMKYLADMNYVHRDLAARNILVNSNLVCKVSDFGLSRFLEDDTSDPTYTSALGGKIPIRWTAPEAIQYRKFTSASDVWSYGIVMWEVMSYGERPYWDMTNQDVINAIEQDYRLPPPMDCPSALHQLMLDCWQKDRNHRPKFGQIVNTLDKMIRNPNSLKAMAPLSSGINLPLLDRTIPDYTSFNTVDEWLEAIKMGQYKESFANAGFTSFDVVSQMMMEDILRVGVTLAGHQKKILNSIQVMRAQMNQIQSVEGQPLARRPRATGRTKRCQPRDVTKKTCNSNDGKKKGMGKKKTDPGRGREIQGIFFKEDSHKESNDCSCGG

ITK = target: T3, ITK (Homo sapiens, UniProt Q08881)
T3 sequence (Q08881 1-620): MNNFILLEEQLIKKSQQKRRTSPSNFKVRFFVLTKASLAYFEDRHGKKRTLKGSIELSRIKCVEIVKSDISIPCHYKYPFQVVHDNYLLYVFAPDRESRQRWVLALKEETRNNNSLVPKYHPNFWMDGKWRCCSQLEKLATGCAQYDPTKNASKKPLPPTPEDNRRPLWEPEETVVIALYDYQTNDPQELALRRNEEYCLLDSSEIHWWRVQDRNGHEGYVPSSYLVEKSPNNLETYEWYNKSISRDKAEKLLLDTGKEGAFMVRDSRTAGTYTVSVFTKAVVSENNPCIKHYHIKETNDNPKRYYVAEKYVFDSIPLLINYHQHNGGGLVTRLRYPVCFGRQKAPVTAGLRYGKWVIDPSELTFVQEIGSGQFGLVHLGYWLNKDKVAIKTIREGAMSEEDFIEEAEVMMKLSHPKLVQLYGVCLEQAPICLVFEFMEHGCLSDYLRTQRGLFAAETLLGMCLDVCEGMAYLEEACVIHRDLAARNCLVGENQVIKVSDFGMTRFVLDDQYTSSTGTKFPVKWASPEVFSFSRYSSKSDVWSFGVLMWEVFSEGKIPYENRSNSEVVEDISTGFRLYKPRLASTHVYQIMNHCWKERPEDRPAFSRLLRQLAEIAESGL

KIT = KIT (Homo sapiens, UniProt P10721)
KIT, sequence (P10721 26-976): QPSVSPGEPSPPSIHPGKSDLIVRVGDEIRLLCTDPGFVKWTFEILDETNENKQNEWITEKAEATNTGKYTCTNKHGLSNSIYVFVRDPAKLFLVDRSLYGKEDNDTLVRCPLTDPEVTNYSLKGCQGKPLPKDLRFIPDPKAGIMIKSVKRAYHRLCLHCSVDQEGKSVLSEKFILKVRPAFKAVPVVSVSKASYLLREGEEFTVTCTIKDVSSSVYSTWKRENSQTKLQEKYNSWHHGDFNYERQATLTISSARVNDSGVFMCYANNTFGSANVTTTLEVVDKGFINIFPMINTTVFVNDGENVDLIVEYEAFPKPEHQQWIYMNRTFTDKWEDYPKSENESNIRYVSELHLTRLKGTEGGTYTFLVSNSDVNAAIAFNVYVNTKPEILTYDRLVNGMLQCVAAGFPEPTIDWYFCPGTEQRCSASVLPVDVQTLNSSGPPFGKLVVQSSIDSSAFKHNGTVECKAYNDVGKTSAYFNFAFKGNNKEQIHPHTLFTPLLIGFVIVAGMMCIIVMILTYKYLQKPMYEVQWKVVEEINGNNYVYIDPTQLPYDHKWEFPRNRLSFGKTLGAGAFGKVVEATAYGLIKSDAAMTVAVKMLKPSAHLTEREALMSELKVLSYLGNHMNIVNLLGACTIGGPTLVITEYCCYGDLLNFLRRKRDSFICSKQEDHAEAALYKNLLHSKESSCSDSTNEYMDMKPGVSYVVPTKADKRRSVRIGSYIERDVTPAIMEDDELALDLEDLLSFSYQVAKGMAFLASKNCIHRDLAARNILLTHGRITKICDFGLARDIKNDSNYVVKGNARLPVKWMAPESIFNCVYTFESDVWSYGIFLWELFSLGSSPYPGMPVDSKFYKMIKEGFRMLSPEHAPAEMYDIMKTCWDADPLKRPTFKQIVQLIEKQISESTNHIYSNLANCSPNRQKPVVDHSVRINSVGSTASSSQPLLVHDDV

| Compound | Percent control (EPHB4) | Percent control (FLT3(ITD)) | Percent control (EPHB2) | Percent control (ITK) | Percent control (KIT) |
| --- | --- | --- | --- | --- | --- |
| Cc1ccc(NC(=O)c2ccc(CN3CCN(C)CC3)cc2)cc1Nc1nccc(-c2cccnc2)n1 [Imatinib, reference compound] | 100% | 38.7% | – | – | – |
| Cc1ccc(NC(=O)c2ccc(CN3CCN(C)CC3)cc2)cc1Nc1nccc(-c2cccnc2)[n+]1[Pt-2]1([Cl])[NH2+]C2CCCCC2[NH2+]1 (stereo not drawn) [1b, oxaliplatin-imatinib] | 100% | 74% | 95% | 100% | 0.2% |
| COc1cc2c(Nc3ccc(Br)cc3F)[n+]([Pt-2]3([Cl])[NH2+]C4CCCCC4[NH2+]3)cnc2cc1OCC1CCN(C)CC1 (stereo not drawn) [3b, oxaliplatin-vandetanib] | 35% | – | 69% | 95% | 1.1% |
| C#Cc1cccc(Nc2c3cc(OCCOC)c(OCCOC)cc3nc[n+]2[Pt@SP2-2]([NH3+])([NH3+])[Cl])c1 [2a, cisplatin-erlotinib] | 91% | 79% | 94% | 84% | 86% |
| COc1cc2c(Nc3ccc(Br)cc3F)ncnc2cc1OCC1CCN(C)CC1 [Vandetanib, reference compound] | – | 15.3% | – | – | – |
| C#Cc1cccc(Nc2ncnc3cc(OCCOC)c(OCCOC)cc23)c1 [Erlotinib] | – | 7.6% | – | – | – |
